Laboratory results published in patent US20260167615A1, “COMPOUNDS AND COMPOSITIONS AS GPR52 MODULATORS” (Neurocrine Biosciences, Inc., priority 2022, published 2026).

Biological target: recombinant human GPR52 (Homo sapiens, UniProt Q9Y2T5)
Assay: HTRF cAMP assay, GPR52 activity (Example A)
Assay type: cell-based
Details: for EC50: average EC50 (n=1 to 15), Flp-In-CHO cells stably expressing recombinant human GPR52, cAMP HTRF, read-out: EC50 (N=); for Emax: maximum cAMP at 10 μM or 31.6 μM test compound, as percentage of Emax of control compound 4-(3-(3-fluoro-5-(trifluoromethyl)benzyl)-5-methyl-4,5-dihydro-1H-1,2,4-triazol-1-yl)-2-methylbenzamide
Method: Compounds of Formula I were assessed for their ability to modulate GPR52 activity. HTRF CAMP assays were performed using a commercially available assay kit (CAMP Gs HiRange HTRF®, CisBio). Controls and compounds were solubilized in DMSO and 62.5 nanoliters of the diluted compounds were transferred into 384-well NBS assay plates via acoustic or precision low-volume dispensing. Compounds were further diluted to 1× with the addition of 20,000 cells per well. Flp-In™—CHO cells that stably express recombinant human GPR52 were used in the assay.
Cells were harvested with cell stripper and resuspended in stimulation buffer. After thirty minutes incubation at room temperature, detection reagents were added to each well. Plates were then incubated for an additional 30 minutes at room temperature. CAMP produced by the cells during the first incubation period competes with d2-labeled CAMP for binding to an anti-cAMP monoclonal antibody labeled with europium cryptate. The measured signal was inversely proportional to the concentration of cAMP produced by the cells and this signal was quantified using a PHERAstar® multi-mode plate reader.
Dose-response curves were generated from the HTRF counts that have been transformed based on a CAMP referenced curve, and then normalized to the positive control. EC50 values were obtained using a nonlinear regression curve-fitting program. […] The Emax (Table 13) is the maximum amount of cAMP (nM) produced by incubation of the cells with 10 μM or 31.6 μM of a test compound. The compound is defined by the top plateau of the sigmoid curve fit. The curve is then normalized to a control compound, in this case 4-(3-(3-fluoro-5-(trifluoromethyl)benzyl)-5-methyl-4,5-dihydro-1H-1,2,4-triazol-1-yl)-2-methylbenzamide (Tokumaru, K., et al., “Design, synthesis, and pharmacological evaluation of 4-azolyl-benzamide derivatives as novel GPR52 agonists”, Bioorganic & Medicinal Chemistry, Volume 25, Issue 12, June 2017, pages 3098-3115), and expressed as a percentage of the Emax of that control compound.

Chain of recombinant human GPR52 (Q9Y2T5 whole entry): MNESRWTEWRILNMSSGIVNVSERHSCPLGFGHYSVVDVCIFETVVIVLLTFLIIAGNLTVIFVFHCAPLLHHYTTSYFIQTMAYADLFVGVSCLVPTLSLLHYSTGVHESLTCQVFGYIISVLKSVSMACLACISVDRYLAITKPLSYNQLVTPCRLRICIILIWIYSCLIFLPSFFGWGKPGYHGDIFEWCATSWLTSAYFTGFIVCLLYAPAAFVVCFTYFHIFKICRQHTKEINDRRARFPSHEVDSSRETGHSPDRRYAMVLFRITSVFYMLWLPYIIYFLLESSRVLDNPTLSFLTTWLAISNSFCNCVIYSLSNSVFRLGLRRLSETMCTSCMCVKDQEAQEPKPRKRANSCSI

EC50 | Emax | SMILES
1000 to 2000 nM | 96% | Cc1cc(-c2cccc(Oc3ccc4cnn(C)c4c3)c2)ccc1C(N)=O [Example 51, 3-methyl-3′-((1-methyl-1H-indazol-6-yl)oxy)-[1,1′-biphenyl]-4-carboxamide]
< 25 nM | 119% | Cc1cc(-c2cc(Oc3ccc4c(c3)NCCO4)ccn2)ccc1C(N)=O [Example 69, 4-(4-((3,4-dihydro-2H-benzo[b][1,4]oxazin-6-yl)oxy)pyridin-2-yl)-2-methylbenzamide]
101 to 1000 nM | 138% | CCc1cc(-c2cc(Oc3ccc4ncc(F)cc4c3)ccn2)ccc1C(N)=O [Example 95, 2-ethyl-4-(4-((3-fluoroquinolin-6-yl)oxy)pyridin-2-yl)benzamide]
101 to 1000 nM | 110% | NC(=O)c1ccc(-c2cc(Oc3ccc4cnccc4c3)ccn2)cc1Cl [Example 82, 2-chloro-4-(4-(isoquinolin-6-yloxy)pyridin-2-yl)benzamide]
101 to 1000 nM | 95% | CCc1cc(-c2cc(Oc3ccc4cnn(C)c4c3)ccn2)ccc1C(=O)NC [Example 59, 2-ethyl-N-methyl-4-(4-((1-methyl-1H-indazol-6-yl)oxy)pyridin-2-yl)benzamide]
101 to 1000 nM | 100% | CCc1cc(-c2cc(Oc3cnc4c(Cl)cccc4c3)ccn2)ccc1C(N)=O [Example 112, 4-(4-((8-chloroquinolin-3-yl)oxy)pyridin-2-yl)-2-ethylbenzamide]
1000 to 2000 nM | 107% | Cc1cc(-c2cc(Oc3cccc4occc34)ccn2)ccc1C(N)=O [Example 90, 4-(4-(benzofuran-4-yloxy)pyridin-2-yl)-2-methylbenzamide]
25 to 100 nM | 100% | CCc1cc(-c2cc(Oc3cnc4c(c3)c(C(F)(F)F)nn4C)ccn2)ccc1C(N)=O [Example 56, 2-ethyl-4-(4-((1-methyl-3-(trifluoromethyl)-1H-pyrazolo[3,4-b]pyridin-5-yl)oxy)pyridin-2-yl)benzamide]
101 to 1000 nM | 86% | Cc1nc2cc(Oc3ccnc(-c4ccc(C(N)=O)c(C)c4)c3)ccc2s1 [Example 86, 2-methyl-4-(4-((2-methylbenzo[d]thiazol-5-yl)oxy)pyridin-2-yl)benzamide]
101 to 1000 nM | 129% | Cc1cc(-c2cc(Oc3ccc4c(c3)CCO4)ccn2)ccc1C(N)=O [Example 67, 4-(4-((2,3-dihydrobenzofuran-5-yl)oxy)pyridin-2-yl)-2-methylbenzamide]
101 to 1000 nM | 138% | Cc1cc(-c2cc(Oc3ccc4ncc(Cl)cc4c3)ccn2)ccc1C(N)=O [Example 99, 4-(4-((3-chloroquinolin-6-yl)oxy)pyridin-2-yl)-2-methylbenzamide]
25 to 100 nM | 108% | CCc1cc(-c2cc(Oc3cnc4c(c3)c(C)nn4C)ccn2)ccc1C(N)=O [Example 55, 4-(4-((1,3-dimethyl-1H-pyrazolo[3,4-b]pyridin-5-yl)oxy)pyridin-2-yl)-2-ethylbenzamide]
101 to 1000 nM | 81% | CCc1cc(-c2cc(Oc3cnc4c(C(F)(F)F)nn(C)c4c3)ccn2)ccc1C(=O)NC [Example 61, 2-ethyl-N-methyl-4-(4-((1-methyl-3-(trifluoromethyl)-1H-pyrazolo[4,3-b]pyridin-6-yl)oxy)pyridin-2-yl)benzamide]
101 to 1000 nM | 60% | Cc1cc(-c2cc(Oc3ccc4ccncc4c3)ccn2)ccc1C(N)=O [Example 79, 4-(4-(isoquinolin-7-yloxy)pyridin-2-yl)-2-methylbenzamide]
101 to 1000 nM | 102% | CCc1cc(-c2cc(Oc3cnc4c(C)nn(C)c4c3)ccn2)ccc1C(=O)NC [Example 60, 4-(4-((1,3-dimethyl-1H-pyrazolo[4,3-b]pyridin-6-yl)oxy)pyridin-2-yl)-2-ethyl-N-methylbenzamide]
25 to 100 nM | 62% | Cc1cc(-c2cc(Oc3cnc4c(F)c(F)ccc4c3)ccn2)ccc1C(N)=O [Example 116, 4-(4-((7,8-difluoroquinolin-3-yl)oxy)pyridin-2-yl)-2-methylbenzamide]
